Laboratory results: US9050278B2, “Scavenger of in vivo harmful reactive oxygen species and/or free radicals” (priority 2005, dated 2015)
Where two headings read alike, the source gives them in different places.

Assays:
PC12 cells [1] = assay: Cell death induced by antimycin A, viable cell count; type: cell-based, Rat
Experimental: (§1) The cells were cultured with an incubator at 37° C. under 5% CO2.
(§2) The cells were cultured at 37° C. in a sealed state. […] The cells were cultured at 37° C.
(§3) After 24 hours, the number of viable cells having a pyramid-shaped cell form was counted under a phase contrast microscope.
(§4) PC12 cells were cultured in a collagen-coated 24-well cell culture dish (manufactured by IWAKI&Co. Ltd.). […] After 0, 1, 2, and 3 days, the number of viable cells having a pyramid-shaped cell form was counted under a phase contrast microscope.
as §4, with “Cell death was induced by antimycin A or menadione in the same way as in Examples 2 and 3. […] First, PC12” for “PC12”, “24 hours,” for “0, 1, 2, and 3 days,”
as §3

PC12 cells [2] = assay: Cell death induced by menadione, viable cell count; type: cell-based, Rat
Experimental: as §1, §2, §3, §4
as §4, with “Cell death was induced by antimycin A or menadione in the same way as in Examples 2 and 3. […] First, PC12” for “PC12”, “24 hours,” for “0, 1, 2, and 3 days,”

[3] = Elimination of nitrogen monoxide by hydrogen water; type: biochemical; settings: neutral solution saturated with hydrogen molecules, room temperature
Experimental: First, 1 l of water was injected into a 5-l pressure-resistant bottle (manufactured by UNICONTROLS. CO., LTD.). […] After reaction at room temperature for 30 minutes, 1 μM 5-(and -6)-chloromethyl-2′,7′-dichlorodihydrofluorescein diacetate (DCFDH; manufactured by Molecular Probe, USA) was subsequently added thereto. The amount of NO remaining was measured with a fluorescence analyzer (manufactured by TECAN, Austria) at an excitation wavelength of 485 nm. […] After reaction at room temperature for 30 minutes, absorbance at 415, 400, and 340 nm, respectively, were measured with a spectrophotometer.

[4] = Elimination of hydrogen peroxide by hydrogen water; type: biochemical; settings: neutral solution saturated with hydrogen molecules, room temperature
Experimental: (§5) First, 1 l of water was injected into a 5-l pressure-resistant bottle (manufactured by UNICONTROLS. CO., LTD.).
After reaction at room temperature for 30 minutes, 0.2 M phosphate buffer (pH 7.2) containing an equal amount of 20 μM DCFDA was subsequently added thereto. After reaction for 10 minutes, the amount of H2O2 remaining was measured with a fluorescence analyzer at an excitation wavelength of 485 nm.
(§6) After reaction at room temperature for 30 minutes, absorbance at 415, 400, and 340 nm, respectively, were measured with a spectrophotometer.

[5] = Elimination of superoxide by hydrogen water; type: biochemical; settings: neutral solution saturated with hydrogen molecules, room temperature
Experimental: as §5
For superoxide (O2^−.), 25× Reaction Buffer, Xanthine Solution, and NBT Solution contained in […] […] Then, a Xanthine oxidase solution was added thereto to thereby generate O2^−.. NBT-diformazan accumulation was measured over time with a spectrophotometer at 550 nm.
as §6

cytochrome c = assay: Reduction of cytochrome c in hydrogen water; type: biochemical; settings: neutral solution saturated with hydrogen molecules, room temperature
Experimental: as §5, §6

[6] = Reduction of FAD in hydrogen water; type: biochemical; settings: neutral solution saturated with hydrogen molecules, room temperature
Experimental: as §5, §6

[7] = Reduction of NAD+ in hydrogen water; type: biochemical; settings: neutral solution saturated with hydrogen molecules, room temperature
Experimental: as §5, §6

[8] = room temperature, neutral conditions, without catalysts, HPF fluorescence
Excerpt: RF-5300PC (manufactured by Shimadzu Corp.) was used in fluorescence intensity measurement.
The .OH was monitored with a spectrofluorometer.

skeletal muscle = system: skeletal muscle
Experimental: It has been known that strenuous exercise and the sudden stop of exercise generate free radicals and damage various tissues including muscles. […] Rats (Wister Rats, 8 week old, male) were run at a speed of 40 m/min. for 20 minutes. […] After 30 minutes, the rats were slaughtered. The skeletal muscle was excised. […] The method was conducted according to Sakai, Y., Iwamura, Y., Hayashi, J., Yamamoto, N., Ohkoshi, N., Nagata, H., Acute exercise causes mitochondrial DNA deletion in rat skeletal muscle., Muscle and Nerve 22: 256-261, 1999.

PC12 cells [9] = settings: antimycin A 10 μg/ml, 0.6 mM hydrogen, 30 minutes
Experimental: (§7) To generate .OH via O2^−., antimycin A was added to cells. […] The cells were cultured at 37° C.
(§8) In .OH detection, HPF (0.4 μM) was added to a cell medium, and the fluorescence image thereof was observed using a confocal laser scanning microscope (FV300 manufactured by Olympus Corp.) at an excitation wavelength of 488 nm and an […] wavelength of 510 nm. MitoTracker Green (1 μM; Molecular Probes) and MitoTracker Red (100 nM; Molecular Probes) were used in the staining of mitochondria. Anti-HNE and anti-8-OH-G antibodies were purchased from Nikken Seil Co., Ltd. Moreover, anti-TUJ-1 and anti-GFAP antibodies were purchased from Babco and Immunon, respectively.

PC12 cells [10] = settings: antimycin A 10 μg/ml, 0.6 mM hydrogen, 24 hours
Experimental: as §7, §8
The scale bars in FIGS. 16 and 18 denote 100 μm. Immunostaining intensities with anti-8-OH-G (FIG. 17) and anti-HNE (FIG. 19) antibodies were quantified using NIH Image software. […] Average values and standard deviations were determined from 4 independent experiments. *P<0.05, **P<0.01, ***P<0.001.

[11] = system: cerebral ischemia-reperfusion injury
Experimental: In cerebral ischemia, diverse mechanisms generate reactive oxygen species, and .OH is detected after ischemia-reperfusion. Rats were rendered locally ischemic for 90 minutes by mild cerebral artery occlusion and subsequently reperfused for 30 minutes. […] FK506 (1 mg/kg of body weight) was administered into the blood once immediately before reperfusion. Edaravone (3 mg/kg of body weight) was administered into the blood twice immediately before reperfusion and immediately after reperfusion. After anesthesia, the rats were maintained at 20° C. under usual air. […] After 1 day of mild cerebral artery occlusion, the brain was sliced, and the slices were stained with 2,3,5-triphenyltetrazolium salt (TTC) capable of serving as a substrate in mitochondrial respiration process. After 1 week, the animals were put under anesthesia. Then, the brain was rapidly excised and fixed with 10% formalin. The paraffin-embedded brain was sliced into a thickness of 6 μm, and the slices were stained with hematoxylin-eosin. Moreover, VECSTAIN ABC Kit was used in staining with antibodies. Anti-Iba-I antibodies were purchased from Wako Pure Chemical Industries, Ltd. Image analysis software (Mac Scope ver. 2.55; Mitsuya Shoji) was used in slide analysis. All the animal experiments were conducted according to the guideline of the animal commission of Nippon Medical School.
An infarct volume was estimated by measuring visually white regions in the brain. […] For comparison, two compounds were further tested. […] The other compound was FK506, which is under clinical trial for cerebral infarction in USA. […] The brain infarct volume was calculated as a total sum of all the slices according to the equation: infarct area×thickness.
Rats were rendered locally ischemic for 90 minutes by mild cerebral artery occlusion and subsequently reperfused for 30 minutes. […] The brain was cut by coronal section into 6 slices after 1 day of mild cerebral artery occlusion, and the slices were stained with TTC.
The photographs of FIG. 28 are the staining images of 3 different slices obtained by this method. […] An average value of infarct volumes and standard deviation were determined from the values of 6 animals in each group. *P<0.05, **P<0.01, ***P<0.001.
The brain was fixed after 3 days or 7 days of mild cerebral artery occlusion and embedded in paraffin. The coronal sections of 6 μm in thickness were stained with anti-8-OH-G, anti-HNE, or anti-GFAP antibodies. The left photographs of FIGS. 31 to 33 show the same regions adjacent to occlusion in the temporal cortical regions. The scale bar denotes 100 μm.
In the staining experiment, the brain was fixed after 3 days or 7 days of mild cerebral artery occlusion and embedded in paraffin. The coronal sections were stained with each antibody. The photographs of FIG. 34 show the central regions of occlusion in the temporal cortical regions. The scale bar of FIG. 34 denotes 200 μm. The scale bar in the inserted photographs of FIG. 34 denotes 100 μm. In FIG. 35, an average value of the number of Iba-1-positive cells in a certain field and standard deviation were determined from 6 animals in each group. *P<0.05. […] Microglia accumulation serves as an indicator for a brain disorder.

[12] = neutral solution saturated with hydrogen molecules, room temperature
[13] = neutral solution saturated with hydrogen molecules, room temperature; remark: listed apart in the source
[14] = system: ischemia-reperfusion injury in the liver; settings: untreated 74
Excerpt: Mice (C57BL/6 line, 5 week old, male) were put under general anesthesia by supplying mixed anesthetic gases (oxygen: 0.3 L/min., nitrous oxide: 0.7 L/min., Sevofrane (Maruishi Pharmaceutical Co., Ltd.): 3%) thereto with a small animal general anesthesia machine Soft Lander (Neuroscience Inc.). After anesthesia introduction, the anesthesia was maintained for a long time by supplying thereto a mixed anesthetic gas containing Sevofrane at a concentration reduced to 1.5% (oxygen: 0.3 L/min., laughing gas: 0.7 L/min., Sevofrane: 1.5%). Surgical skills (reference: Yadav, S. S. et al., Transplantation 65, 1433-1436 (1998)) shown below were used to prepare model animals with local ischemia-reperfusion injury in the liver. The model animals were examined by hematoxylin-eosin staining (H&E staining) for tissue degeneration in the ischemic liver and hepatic parenchymal cell death induced by ischemia-reperfusion injury.
The belly was opened in the middle thereof. Three canals, portal vein, hepatic artery, and bile duct, leading to the left robe of the liver were together blocked (ischemia start) with a micro-clamp (FD562; Aesculap, South San Francisco, Calif., USA). The belly was sutured with a silk thread. After 90 minutes, the belly was opened again by removing the silk thread used for suture, and the micro-clamp was removed (reperfusion start). The belly was sutured again with a silk thread. The left robe of the liver was reperfused for 3 hours under anesthesia. […] After reperfusion for 3 hours, the left robe of the liver (ischemic liver) was excised and cut into fine strip slices. The slices were fixed by dipping in 10% neutral buffered formalin solution (Wako Pure Chemical Industries, Ltd.).
The fixed ischemic liver slices were subjected to dehydration with ethyl alcohol, dehydrating agent removal with xylene, and paraffin infiltration in an automatic embedding apparatus (SAKURA, Tissue-Tek VIPS). The paraffin-embedded ischemic liver was cut into slices of 3 μm to 5 μm in thickness with a sledge microtome. The slices were attached to slide glass. […]

[15] = system: cerebral cortex-derived primary cultured neuronal cells
Experimental: Rat cerebral cortex-derived primary cultured cells were used to induce oxidative stress under more physiological conditions.
Rat cerebral cortex-derived primary cultured neuronal cells were prepared from a 16-day-old fetus. The cerebral cortex was cut after meninges removal and digested with a protease mixed solution (SUMILON). The slices were mechanically dissociated with a pipette. Then, the cells were dispersed in a nerve cell culture medium (SUMILON) and seeded at a cell density of 5×10^4 cells/cm^2 in a plate coated with poly-L-lysine. The medium was replaced every three days by Neurobasal Medium (Gibco) containing B-27 (Gibco). The cells cultured for 11 days were used in the experiment. One day before the creation of an oxygen-glucose-deficient state, the medium was replaced by Neurobasal Medium (Gibco) containing B-27 minus AO (Gibco). […] 90% or more of the cells were neuronal cells.
To terminate the oxygen-glucose-deficient state, the medium was replaced again by the medium used before replacement. Culture was further continued at 37° C. in 95% air/5% carbon dioxide atmosphere.
After 10 minutes of the termination of the oxygen-glucose-deficient state, the amount of .OH was measured based on HPF fluorescence. […] To prepare a control, cells were treated with a DMEM medium containing glucose and oxygen, instead of being exposed to an oxygen-glucose-deficient state. […] An average value and standard deviation was determined from 4 independent experiments. **P<0.01.
After 1 day of oxygen-glucose deficiency, the viable neuronal cells were further detected by staining neuron-specific anti-TUJ-1 antibody. […] Average values and standard deviations shown in FIGS. 23 and 24 were determined from 4 independent experiments. ^#<0.0001 in FIG. 23, *P<0.05 in FIG. 24.

[16] = hydrogen pressure of 1 atm and room temperature; cited from earlier work
[17] = 2% hydrogen gas inhalation vs non-inhalation
[18] = brain fixed after 3 days or 7 days of occlusion

Q: With Cc1c(C)c2c(c(C)c1O)CC[C@@](C)(CCC[C@H](C)CCC[C@H](C)CCCC(C)C)O2 [alpha-tocopherol, reference compound] as the molecule, how does the “number of viable cells / inhibitory effects on cell death” value (PC12 cells [1]; antimycin A 10 μg/mL, 24 hours, vs hydrogen-free medium, alpha-tocopherol 100 μM (Example 5)) read?
A: observed, albeit weaker than those of hydrogen

Q: And the “number of viable cells / inhibitory effects on cell death” value (PC12 cells [2]; menadione 3 μM, 24 hours, vs hydrogen-free medium, alpha-tocopherol 100 μM (Example 5))?
A: significant effects on menadione were not observed

Q: With [HH] [hydrogen molecules, hydrogen] as the molecule, how does the “reduction of nitrogen monoxide” value [3] read?
A: do not reduce

Q: And the “reduction of hydrogen peroxide” value [4]?
A: do not reduce

Q: What about the “reduction of O2^−.” value [5] of the same molecule?
A: do not reduce

Q: What about the “reduction of oxidized cytochrome c containing trivalent heme iron” value (cytochrome c) of the same molecule?
A: does not reduce

Q: What about the “reduction of FAD” value [6] of the same molecule?
A: does not reduce

Q: And the “reduction of NAD^+” value [7]?
A: does not reduce

Q: What about the “hydroxyl radicals (.OH) levels” value [8] of the same molecule?
A: reduce hydroxyl radicals (.OH) levels

Q: What about the “durability of cell death inhibitory effects (time course)” value (PC12 cells [1]; antimycin A 30 μg/mL, 0, 1, 2 and 3 days) of the same molecule?
A: confirmed even on the 2nd day or later

Q: And the “hydrogen concentration at which cell death could still be inhibited significantly” value (PC12 cells [1]; antimycin A 30 μg/mL, 24 hours, approximately 1/16 of the saturated hydrogen concentration)?
A: 50 µM

Q: And the “durability of cell death inhibitory effects (time course)” value (PC12 cells [2]; menadione 10 μM, 0, 1, 2 and 3 days)?
A: confirmed even on the 2nd day or later

Q: And the “deletion in mitochondrial DNA (PCR)” value (skeletal muscle; rats after exercise that ingested hydrogen (inhalation or intraperitoneal saline containing supersaturated hydrogen))?
A: reduced

Q: And the “damage in the muscular tissues (H&E staining)” value (skeletal muscle; rats run 40 m/min. for 20 minutes, then air containing 10% hydrogen gas for 30 minutes)?
A: alleviate damage in the muscular tissues

Q: What about the “.OH levels (HPF fluorescence)” value (PC12 cells [9]) of the same molecule?
A: reduced .OH levels

Q: And the “accumulation of 4-hydroxy-2-nonenal (HNE)” value (PC12 cells [10])?
A: inhibition of accumulation

Q: And the “oxidized guanine (8-OH-G) level” value (PC12 cells [10])?
A: protected nuclear DNA from oxidation

Q: What about the body temperature [11, 17] of the same molecule?
A: improved

Q: And the body weight [11, 17]?
A: improved

Q: And the “brain infarct volume (TTC staining)” value ([11]; 2% hydrogen gas inhaled only during ischemia but not during reperfusion, 1 day)?
A: not reduced

Q: What about the “most effective hydrogen concentration for reduction of infarct volume” value ([11]; 1 day after occlusion, inhaled gas 0 to 4% (v/v) hydrogen) of the same molecule?
A: 2%

Q: And the “brain infarct volume (TTC staining)” value ([11]; 1 day after occlusion, inhaled hydrogen 0 to 4% (v/v) for 120 minutes in total)?
A: Hydrogen concentration-dependent reductions in infarct volume were obviously observed

Q: What about the “alleviation of an oxidative disorder compared with Edaravone and FK506” value ([11]; Edaravone 6 mg/kg of body weight, FK506 1 mg/kg of body weight) of the same molecule?
A: more effective for the alleviation of an oxidative disorder than any of the other compounds tested

Q: And the “difference in infarct volume between hydrogen-treated and hydrogen-untreated group (hematoxylin-eosin)” value ([11]; after 1 week of occlusion)?
A: more significant after 1 week

Q: What about the “oxidation marker stainings (anti-8-OH-G, anti-HNE, anti-GFAP positive cells)” value [11, 18] of the same molecule?
A: significantly reduced

Q: What about the “staining with microglia-specific anti-Iba-I antibodies” value [11, 18] of the same molecule?
A: significantly reduced

Q: What about the “reduction of Fe^3+” value [12] of the same molecule?
A: does not reduce

Q: What about the “reduction of Cu^2+” value [13] of the same molecule?
A: does not reduce

Q: And the “Degenerated region in liver tissues (%)” value ([14]; hydrogen gas flow rate 0.04 L/min., from 10 minutes before reperfusion start through whole reperfusion period (280 minutes in total))?
A: 26%

Q: And the “Degenerated region in liver tissues (%)” value ([14]; hydrogen gas flow rate 0.1 L/min., from 5 minutes before reperfusion start to 5 minutes after reperfusion start (10 minutes in total))?
A: 20%

Q: What about the “Degenerated region in liver tissues (%)” value ([14]; hydrogen gas flow rate 0.2 L/min., from 5 minutes before reperfusion start to 5 minutes after reperfusion start (10 minutes in total)) of the same molecule?
A: 10%

Q: And the “increase in the amount of .OH (HPF fluorescence)” value ([15]; 10 minutes after termination of 60 minutes oxygen-glucose-deficient state, 95% hydrogen/5% carbon dioxide vs nitrogen)?
A: not observed in the presence of hydrogen

Q: And the “number of viable neuronal cells” value ([15]; 1 day after oxygen-glucose deficiency, anti-TUJ-1 staining)?
A: increased the number of viable neuronal cells

Q: What about the “viability of neuronal cells (cell count, modified MTT method)” value ([15]; 1 day after oxygen-glucose-deficient state) of the same molecule?
A: increased their viabilities

Q: And the “amount of hydrogen that can be dissolved per L of water” value [16]?
A: approximately 17.5 mL per L
